Reference: patent publication US7829280B2, “Process for reducing interferences in luciferase enzyme assays” (LuminUltra Technologies Ltd., priority 2007, dated 2010)

Key:
firefly luciferase [1] = target: T1, firefly luciferase (Photinus pyralis, UniProt P08659); experiment: Firefly luciferase assay for ATP in ADBAC extract of wastewater effluent, with and without chelating resin; assay type: biochemical
Procedure: The ATP released by this process was measured in a Kikkoman luminometer by mixing 100 microliters of the mixture and combining it with 100 microliters of a luciferase assay mixture. Several dilutions of this ATP extract were also prepared in phosphate buffer and tested. In addition, a 3 mL portion of the ATP extract was mixed with 1 mL of a chelating resin (IRC748, Rohm and Haas Company) and similarly diluted in phosphate buffer, then assayed for ATP.
Further dilutions were made in a phosphate buffer. The chelating resin was IRC-748. The resin treatment consisted of mixing 1 mL of resin with 3 mL of extract, then allowing the resin beads to settle before ATP analysis.

luciferase [2] = target: T2, luciferase (Photinus pyralis, UniProt P08659); experiment: Luciferase activity in ATP standard spiked with ADBAC after treatment with various resins; assay type: biochemical, firefly; settings: 10 ng/mL ATP
T2 sequence (P08659 whole entry): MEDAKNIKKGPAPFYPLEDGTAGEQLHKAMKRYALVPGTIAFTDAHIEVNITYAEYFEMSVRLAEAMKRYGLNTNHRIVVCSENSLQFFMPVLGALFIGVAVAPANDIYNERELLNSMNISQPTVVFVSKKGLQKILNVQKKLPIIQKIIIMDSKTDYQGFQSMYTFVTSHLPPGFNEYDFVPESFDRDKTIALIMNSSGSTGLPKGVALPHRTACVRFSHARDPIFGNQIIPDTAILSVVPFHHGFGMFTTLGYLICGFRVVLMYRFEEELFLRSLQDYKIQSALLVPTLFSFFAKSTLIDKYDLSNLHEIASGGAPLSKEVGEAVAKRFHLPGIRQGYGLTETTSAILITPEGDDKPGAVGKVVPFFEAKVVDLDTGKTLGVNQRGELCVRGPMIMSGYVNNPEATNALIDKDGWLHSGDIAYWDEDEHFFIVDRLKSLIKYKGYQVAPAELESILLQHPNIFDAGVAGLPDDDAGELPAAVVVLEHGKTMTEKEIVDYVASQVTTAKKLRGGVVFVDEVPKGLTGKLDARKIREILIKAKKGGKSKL
Procedure: The experiment was conducted in the same format as described for the first experiment by testing an ATP standard solution spiked with ADBAC. The dilution required to remove inhibition following treatment with an ion-exchange resin was the same as the test condition in which no resin treatment was applied. In contrast, a ¼ fold dilution removed almost all of the inhibition in the solution that had been pre-treated with the chelating resin. Again, the luciferase activity in an undiluted solution treated with the chelating resin provided a response many times greater than untreated solution or solution treated with ion exchange resins.
It should be noted that Table 4 is constructed from results of 2 different experiments. In order to facilitate comparison, the results are expressed as enzyme activity instead of instrument reading. Luciferase activity was calculated by dividing the RLU of each test condition by the RLU of an uninhibited reaction and expressing the results as a percentage.

luciferase [3] = target: T2, luciferase; experiment: Luciferase assay for ATP in ADBAC extract of wastewater effluent (different date), 2 mL resin or two 1 mL portions; assay type: biochemical, firefly; settings: no extract pre-treatment
Procedure: Further dilutions were made in a phosphate buffer. The chelating resin was IRC-748. The resin treatment consisted of mixing 2 mL of resin with 3 mL of extract, then allowing the resin beads to settle before ATP analysis. In a variation of this analysis, 3 mL of sample were treated with 1 mL of resin and the supernatant of this treatment was treated to a second 1 mL portion of resin prior to ATP analysis.

firefly luciferase [4] = target: T1, firefly luciferase; experiment: Firefly luciferase assay of ATP standard solution containing ADBAC, with and without chelating resin pre-treatment; assay type: biochemical; settings: phosphate buffer ATP solution containing 1000 mg/L ADBAC
Procedure: The light produced in this reaction was measured in a luminometer (Kikkoman C-100 Lumitester). Several dilutions of this ATP solution were also prepared in phosphate buffer and tested. In addition, a 3 mL portion of this solution was mixed with 1 mL of a chelating resin (IRC748, Rohm and Haas Company) and similarly diluted in phosphate buffer, then assayed for ATP.

firefly luciferase [5] = target: T1, firefly luciferase; experiment: Combined treatment with soluble (β-cyclodextrin) and insoluble (IRC-748) neutralizers of ADBAC inhibition of firefly luciferase; assay type: biochemical; settings: β-cyclodextrin 3,750 mg/L, resin 1 part per 3 parts
Procedure: Four dilution series were prepared from this stock solution. One series was diluted only in a phosphate buffer. Another identical series was prepared in the phosphate buffer but was pre-treated with IRC-748 chelating resin (3 parts solution treated with one part resin) prior to assaying for ATP. […] The fourth series was prepared in the same way as the third series, except that each member of the series was pre-treated with IRC-748 chelating resin (3 parts solution treated with one part resin) prior to assaying for ATP. All solutions were assayed for ATP by mixing 100 microliters of solution with 100 microliters of luciferase reagent and measuring the light produced in a Kikkoman luminometer.
The experiment described in Example 5 compares the ability of a soluble agent (β-cyclodextrin) and an insoluble agent (chelating resin, IRC-748) and their combination to neutralize the inhibition of the bioluminescent reaction catalyzed by firefly luciferase.
A concentrate of cyclodextrin was added to the ATP solutions in some of the tests to maintain concentration of 3,750 mg/L through the dilution series.

T1 sequence (P08659 whole entry): as above

Row | Molecule | RLU (firefly luciferase [1]; dilution of ADBAC (1000 mg/L) in ATP extract 1/16, resin 1 mL per 3 mL extract) | RLU (firefly luciferase [1]; dilution of ADBAC (1000 mg/L) in ATP extract 1/32, resin 1 mL per 3 mL extract) | RLU (firefly luciferase [1]; dilution of ADBAC (1000 mg/L) in ATP extract ¼, resin 1 mL per 3 mL extract) | RLU (firefly luciferase [1]; dilution of ADBAC (1000 mg/L) in ATP extract ½, resin 1 mL per 3 mL extract) | Luciferase Activity (% of activity in the absence of ADBAC) (luciferase [2]; dilution 1/16, 1000 mg/L ADBAC stock in phosphate buffer) | Luciferase Activity (% of activity in the absence of ADBAC) (luciferase [2]; dilution None, 1000 mg/L ADBAC in phosphate buffer) | Luciferase Activity (% of activity in the absence of ADBAC) (luciferase [2]; dilution ¼, 1000 mg/L ADBAC stock in phosphate buffer) | Luciferase Activity (% of activity in the absence of ADBAC) (luciferase [2]; dilution ½, 1000 mg/L ADBAC stock in phosphate buffer) | Luciferase Activity (% of activity in the absence of ADBAC) (luciferase [2]; dilution ⅛, 1000 mg/L ADBAC stock in phosphate buffer) | RLU (luciferase [3]; dilution of ADBAC in ATP extract 1/16) | RLU (luciferase [3]; dilution of ADBAC in ATP extract 1/32) | RLU (luciferase [3]; dilution of ADBAC in ATP extract ¼) | RLU (luciferase [3]; dilution of ADBAC in ATP extract ½) | RLU (luciferase [3]; dilution of ADBAC in ATP extract ⅛) | dilution factor needed to overcome luciferase inhibition (firefly luciferase [4]) | RLU (firefly luciferase [5]; dilution 1/16 of 7200 mg/L ADBAC, 1 ng ATP per mL stock) | RLU (firefly luciferase [5]; dilution ¼ of 7200 mg/L ADBAC, 1 ng ATP per mL stock) | RLU (firefly luciferase [5]; dilution ½ of 7200 mg/L ADBAC, 1 ng ATP per mL stock (3600 mg/L ADBAC, 0.5 ng/mL ATP)) | RLU (firefly luciferase [5]; dilution ⅛ of 7200 mg/L ADBAC, 1 ng ATP per mL stock)
1 | alkyl dimethybenzyl ammonium chloride [ADBAC] | 4,628 RLU | 2,401 RLU | 4,658 RLU | 1,489 RLU | 100% | 0.01% | 33% | 6.7% | 100% | 3100 RLU | 1551 RLU | 7,310 RLU | 209 RLU | 6064 RLU | 8 | – | – | – | –
2 | OC[C@H]1O[C@@H]2O[C@H]3[C@H](O)[C@@H](O)[C@@H](O[C@H]4[C@H](O)[C@@H](O)[C@@H](O[C@H]5[C@H](O)[C@@H](O)[C@@H](O[C@H]6[C@H](O)[C@@H](O)[C@@H](O[C@H]7[C@H](O)[C@@H](O)[C@@H](O[C@H]8[C@H](O)[C@@H](O)[C@@H](O[C@H]1[C@H](O)[C@H]2O)O[C@@H]8CO)O[C@@H]7CO)O[C@@H]6CO)O[C@@H]5CO)O[C@@H]4CO)O[C@@H]3CO [β-cyclodextrin] | – | – | – | – | – | – | – | – | – | – | – | – | – | – | – | 606 RLU | 96 RLU | 3 RLU | 1227 RLU
